The subject of one data set is translation. As to conditions: previous studies; cited from earlier work.
For another data set, the system named is JFH-1 HCVcc-Luc. Briefly: microbe, parasite or virus in culture. The class given is cell-based, Hepatitis C virus. As to conditions: for inhibition of HCV infection (in words): Huh7.5.1 cells, comparisons are to aglaroxin C (6); for EC50: Hepatitis C virus, Huh-7.5.1, read-out: EC50, inhibition of HCV infection.
Data set [1] deals with Huh7.5.1 cells. Nature of the data set: Cytotoxicity, CellTiter-Glo Cell Viability Luminescent Assay. The class given is cell-based, human. As to conditions: Huh7.5.1 cells; comparisons are to aglaroxin C (6). How it is done:
(§1) To determine the […] of each compound, Huh7.5.1 cells were treated with compounds or DMSO at indicated doses for 3 h in 96-well plates. After removal of compounds, cells were further incubated for 72 h prior to the viability assay. The numbers of viable cells in culture were determined using the CellTiter-Glo Cell Viability Luminescent Assay kit according to the manufacturer's instruction (Promega). Percentages of toxicity were calculated using the formulas: 100-percentage of vial cells relative to that from the dimethyl sulfoxide (DMSO) treated group (100%) (n=3) (FIG. 20-FIG. 57).
Background: Cellular ATP, detected with luciferase, serves as a proxy for viable cell number.

Experiment in data set [2]: as above
As to conditions: human; Huh7.5.1 cells, 3 h treatment, viability after 72 h; concentration giving 50% cell death. Type of data set: cell-based, human. On the procedure:
as §1

The test system of data set [3] is cap-dependent Firefly luciferase (FLuc) translation. Nature of the data set: In vitro translation of bicistronic FF/HCV/Ren mRNA in Krebs-2 extracts, cap-dependent. Type of data set: biochemical. As to conditions: 1 μM, relative to DMSO. From the text:
In this system, Firefly luciferase (FLuc) translation is cap-dependent whereas Renilla luciferase (RLuc) expression HCV-IRES dependent. […] Results are presented relative to values obtained in the presence of DMSO ad expressed as mean±error of two biological replicates.
In this system, translation of the Firefly luciferase (FLuc) translation is cap-dependent whereas Renilla luciferase (RLuc) translation is dependent upon the HCV internal ribosome entry site (IRES) FIG. 11A.
In vitro transcriptions and translations were performed as described previously. Plasmid encoding the bicistronic FF/HCV/Ren open reading frame was linearized with BamHI and m^7Gppp-capped mRNA was produced by in vitro transcription reactions using SP6 RNA polymerase. In vitro translation reactions were performed with S10 extracts prepared from Kreb-2 cells and programmed with 4 ng/uL of in vitro transcribed mRNA. Firefly (FF) and Renilla (Ren) luciferase activities were measured on a Berthold Lumat LB9507 Luminometer and values normalized against vehicle control, which was set at 1.

Data set [4] relates to Huh7.5.1 cells. Briefly: MTS cell viability assay. Type of data set: cell-based, human. As to conditions: 3 h treatment, 72 h incubation. The source says:
In this comparison, niclosamide was used as a positive control, which is known as HCV inhibitor (unclear mechanisms). Data from CellTiter-Glo assay was obtained from separate experiments conducted on a different date.
MTS (3-(4,5-dimethylthiazol-2-yl)-5-(3-carboxymethoxyphenyl)-2-(4-sulfophenyl)-2H-tetrazolium)) assay is a colorimetric assay used to determine the mitochondrial metabolic rate by quantifying the reduced formazan product of MTS in cells to reflect viable cells. To determine the CC50 of each compound, Huh7.5.1 cells were treated with compounds or DMSO at indicated doses for 3 h in 96-well plates. After removal of compounds, cells were further incubated for 72 h prior to conducting the viability assay. The MTS assay in this study is accordance with a protocol provided by manufacturer (Promega, Madison, Wis. USA). One-fifth volume of MTS reagent was added into the culture supernatant at indicated time points. Plates were incubated at 37° C. for 3 hours with 5% CO2 followed by measuring the absorbance at 490 nanometers (nm) with an ELISA reader (SpectraMax Plus 385, Molecular Devices, USA). Percentages of toxicity were calculated using the formulas: 100-percentage of vial cells relative to that from the dimethyl sulfoxide (DMSO) treated group (100%) (n=3) (FIG. 68-FIG. 71).

The EC50 is the concentration needed to bring the measured effect to its halfway point. As a reminder, the CC50 is the concentration giving 50% cytotoxicity. Lower therefore signals harm at low concentration.

With `COC(=O)[C@H]1[C@@H](O)[C@@]2(O)c3c(OC)cc(O[C@@H]4O[C@@H]([C@H](O)CO)CO[C@H]4OC)cc3O[C@@]2(c2ccc(OC)cc2)[C@@H]1c1ccccc1` [silvestrol], the “translation inhibition (in words)” value with translation is “excellent translation inhibitor”. For the molecule `COc1ccc([C@@]23Oc4cc(OC)cc(OC)c4[C@]2(O)c2nc(C4CC4)[nH]c(=O)c2[C@H]3c2ccccc2)cc1` [12h, (5R,5aR,10bS)-2-Cyclopropyl-10b-hydroxy-8,10-dimethoxy-5a-(4-methoxyphenyl)-5-phenyl-3,5,5a,10b-tetrahydro-4H-benzofuro[2′,3′:4,5]cyclopenta[1,2-d]pyrimidin-4-one], the “inhibition of HCV infection (in words)” value with JFH-1 HCVcc-Luc is “increased inhibition”. `COc1ccc([C@@]23Oc4cc(OC)cc(OC)c4[C@]2(O)c2nc(-c4ccccc4)[nH]c(=O)c2[C@@H]3c2ccccc2)cc1` [12ah, (5S,5aR,10bS)-10b-Hydroxy-8,10-dimethoxy-5a-(4-methoxyphenyl)-2,5-diphenyl-3,5,5a,10b-tetrahydro-4H-benzofuro[2′,3′:4,5]cyclopenta[1,2-d]pyrimidin-4-one]: the “cytotoxicity (in words)” value in the data set on Huh7.5.1 cells [1] is listed as “no cytotoxicity”. For the same molecule, the “inhibition of HCV infection (in words)” value in the data set on JFH-1 HCVcc-Luc was “inactive”. For `COc1ccc([C@@]23Oc4cc(OC)cc(OC)c4[C@]2(OC)c2nc(-c4ccccc4)n(C)c(=O)c2[C@H]3c2ccccc2)cc1` [12ai, (5R,5aR,10bS)-8,10,10b-Trimethoxy-5a-(4-methoxyphenyl)-3-methyl-2,5-diphenyl-3,5,5a,10b-tetrahydro-4H-benzofuro[2′,3′:4,5]cyclopenta[1,2-d]pyrimidin-4-one], in the data set with JFH-1 HCVcc-Luc, the EC50 came out at 9.2 µM. `COc1ccc([C@@]23Oc4cc(OC)cc(OC)c4[C@]2(O)c2nc(C4CCCCC4)[nH]c(=O)c2[C@H]3c2ccccc2)cc1` [12e, (5R,5aR,10bS)-2-Cyclohexyl-10b-hydroxy-8,10-dimethoxy-5a-(4-methoxyphenyl)-5-phenyl-3,5,5a,10b-tetrahydro-4H-benzofuro[2′,3′:4,5]cyclopenta[1,2-d]pyrimidin-4-one]: the “cytotoxicity (in words)” value in the data set with Huh7.5.1 cells [1] is “plateauing of cytotoxicity”. In addition, in the data set on JFH-1 HCVcc-Luc, the EC50 was 2.5 µM.

Turning to `COc1ccc([C@@]23Oc4cc(OC)cc(OC)c4[C@]2(O)c2nc(Nc4ccccc4)n(-c4ccccc4)c(=O)c2[C@H]3c2ccccc2)cc1` [12af, (5R,5aR,10bS)-10b-Hydroxy-8,10-dimethoxy-5a-(4-methoxyphenyl)-3,5-diphenyl-2-(phenylamino)-3,5,5a,10b-tetrahydro-4H-benzofuro[2′,3′:4,5]cyclopenta[1,2-d]pyrimidin-4-one], the “inhibition of HCV infection (in words)” value in the data set on JFH-1 HCVcc-Luc was “moderate antiviral activity”. Take `COc1ccc([C@@]23Oc4cc(OC)cc(OC)c4[C@]2(O)c2nc(-c4ccccc4)[nH]c(=O)c2[C@H]3c2ccccc2)cc1` [12a, (5R,5aR,10bS)-10b-Hydroxy-8,10-dimethoxy-5a-(4-methoxyphenyl)-2,5-diphenyl-3,5,5a,10b-tetrahydro-4H-benzofuro[2′,3′:4,5]cyclopenta[1,2-d]pyrimidin-4-one]: the “cytotoxicity (in words)” value with Huh7.5.1 cells [1] is listed as “plateauing of cytotoxicity”. Moreover, the CC50 in data set [2] came to 8.1 µM. For the same molecule, in the data set with JFH-1 HCVcc-Luc, the EC50 was 0.42 µM and the “inhibition of HCV infection (in words)” value is “promising increase of inhibition”. For the molecule `COc1ccc([C@@]23Oc4cc(OC)cc(OC)c4[C@]2(O)c2nc(-c4ccccc4)n(C)c(=O)c2[C@H]3c2ccccc2)cc1` [12ae, (5R,5aR,10bS)-10b-Hydroxy-8,10-dimethoxy-5a-(4-methoxyphenyl)-3-methyl-2,5-diphenyl-3,5,5a,10b-tetrahydro-4H-benzofuro[2′,3′:4,5]cyclopenta[1,2-d]pyrimidin-4-one], the “cytotoxicity (in words)” value in the data set on Huh7.5.1 cells [1] is “plateauing of cytotoxicity”. In data set [2], the CC50 came to 7.3 µM. Further, the EC50 in the data set on JFH-1 HCVcc-Luc came to 0.2 µM. Consider `CONC(=O)[C@H]1[C@@H](O)[C@@]2(O)c3c(OC)cc(OC)cc3O[C@@]2(c2ccc(OC)cc2)[C@@H]1c1ccccc1` [CR-1-31-B, reference compound], for which, in data set [3], the “translation inhibition of firefly luciferase (cap-dependent)” value is on record as “strong inhibition”.

On to `COc1ccc([C@@]23Oc4cc(OC)cc(OC)c4[C@]2(O)c2nc4n(c(=O)c2[C@H]3c2ccccc2)CCCC4)cc1` [12ad, (5aR,6R,13bS)-13b-Hydroxy-1,3-dimethoxy-5a-(4-methoxyphenyl)-6-phenyl-6,9,10,11,12,13b-hexahydrobenzofuro[2′,3′:4,5]cyclopenta[1,2-d]pyrido[1,2-a]pyrimidin-7(5aH)-one], for which the “inhibition of HCV infection (in words)” value with JFH-1 HCVcc-Luc was “moderate antiviral activity”.

Take `COc1ccc([C@@]23Oc4cc(OC)cc(OC)c4[C@]2(O)c2nc(-c4ccccc4)nc(OC)c2[C@H]3c2ccccc2)cc1` [12aj, (5R,5aR,10bS)-4,8,10-Trimethoxy-5a-(4-methoxyphenyl)-2,5-diphenyl-5,5a-dihydro-10bH-benzofuro[2′,3′:4,5]cyclopenta[1,2-d]pyrimidin-10b-ol]: in the data set on Huh7.5.1 cells [1], the “cytotoxicity (in words)” value is on record as “non-toxic”. In the data set with JFH-1 HCVcc-Luc, the “inhibition of HCV infection (in words)” value is “inactive”. Regarding `COc1ccc(-c2nc3c(c(=O)[nH]2)[C@@H](c2ccccc2)[C@]2(c4ccc(OC)cc4)Oc4cc(OC)cc(OC)c4[C@]32O)cc1` (racemic) [12k, (5R,5aR,10bS)-10b-Hydroxy-8,10-dimethoxy-2,5a-bis(4-methoxyphenyl)-5-phenyl-3,5,5a,10b-tetrahydro-4H-benzofuro[2′,3′:4,5]cyclopenta[1,2-d]pyrimidin-4-one], the “toxicity curve in MTS assay compared with CellTiter-Glo assay” value in the data set on Huh7.5.1 cells [4] was “nearly identical toxicity curves”.

`COc1ccc([C@@]23Oc4cc(OC)cc(OC)c4[C@]2(O)c2nc(-c4ccccn4)[nH]c(=O)c2[C@H]3c2ccccc2)cc1` [12ab, (5R,5aR,10bS)-10b-Hydroxy-8,10-dimethoxy-5a-(4-methoxyphenyl)-5-phenyl-2-(pyridin-2-yl)-3,5,5a,10b-tetrahydro-4H-benzofuro[2′,3′:4,5]cyclopenta[1,2-d]pyrimidin-4-one]: in the data set with JFH-1 HCVcc-Luc, the “inhibition of HCV infection (in words)” value is on record as “slightly increased inhibition”. Turning to `COc1ccc([C@]23Oc4cc(OC)cc(OC)c4[C@@]2(O)c2nc(-c4cccc(OC)c4)[nH]c(=O)c2[C@@H]3c2ccccc2)cc1` [(−)-12s], the “cytotoxicity (in words)” value in the data set on Huh7.5.1 cells [1] is listed as “non-toxic”. The “inhibition of HCV infection (in words)” value in the data set on JFH-1 HCVcc-Luc is “inactive”. `COc1ccc([C@]23Oc4cc(OC)cc(OC)c4[C@@]2(O)c2nc(-c4ccc(C)cc4)[nH]c(=O)c2[C@@H]3c2ccccc2)cc1` [(−)-12l]: the “cytotoxicity (in words)” value in the data set with Huh7.5.1 cells [1] is reported as “non-toxic”. Besides, the “inhibition of HCV infection (in words)” value with JFH-1 HCVcc-Luc is “inactive”. On to `COc1ccc([C@@]23Oc4cc(OC)cc(OC)c4[C@]2(O)c2nc(-c4cnccn4)[nH]c(=O)c2[C@H]3c2ccccc2)cc1` [12y, (5R,5aR,10bS)-10b-Hydroxy-8,10-dimethoxy-5a-(4-methoxyphenyl)-5-phenyl-2-(pyrazin-2-yl)-3,5,5a,10b-tetrahydro-4H-benzofuro[2′,3′:4,5]cyclopenta[1,2-d]pyrimidin-4-one], for which the “inhibition of HCV infection (in words)” value in the data set with JFH-1 HCVcc-Luc is “slightly increased inhibition”. Same read-out and setting: the value for `COc1ccc([C@@]23Oc4cc(OC)cc(OC)c4[C@]2(O)c2nc(N4CCOCC4)[nH]c(=O)c2[C@H]3c2ccccc2)cc1` [12j, (5R,5aR,10bS)-10b-Hydroxy-8,10-dimethoxy-5a-(4-methoxyphenyl)-2-morpholino-5-phenyl-3,5,5a,10b-tetrahydro-4H-benzofuro[2′,3′:4,5]cyclopenta[1,2-d]pyrimidin-4-one] was “moderate antiviral activity”.

The values above are taken from patent US11427595B2, “Compositions and methods for inhibiting viral infection” (Trustees of Boston University, priority 2018, dated 2022).
